Reference: patent US5300629A, “Bactericidal and/or bacteriostatic peptides isolated from hemolymph of honeybees” (Plant Genetic Systems, N.V., priority 1987, dated 1994)
Where a SMILES comes first, the peptide text is derived from it.

Columns and labels:
Type in all cases: cell-based
[1] = system: Bordetella bronchiseptica ATCC 19395; assay: Inhibition zone assay; set-up: key: --: "-" means that no inhibition has been found; conditions: I and B 10 ul, L 5 ug
[2] = system: Enterobacter cloacae BE 97; assay: Inhibition zone assay; set-up: key: --: "-" means that no inhibition has been found; conditions: I and B 10 ul
[3] = system: Haemophilus influenzae NCTC 8465; assay: Inhibition zone assay; set-up: key: --: "-" means that no inhibition has been found; conditions: I 10 ul
[4] = system: Salmonella Montevideo 80/141; assay: Inhibition zone assay; set-up: key: --: "-" means that no inhibition has been found; conditions: I and B 10 ul
[5] = system: Corynebacterium diphteriae HB 11 t1; assay: Inhibition zone assay; set-up: key: --: "-" means that no inhibition has been found; conditions: I 10 ul
[6] = system: Lactobacillus acidophilus ATCC 4336; assay: Inhibition zone assay; set-up: key: --: "-" means that no inhibition has been found; conditions: I 10 ul
[7] = system: Pseudomonas solanacearum ATCC 11696; set-up: key: --: "-" means that no inhibition has been found; conditions: * synthetic ApidIa and heattreated immune lymph instead of Bee6 and native immune lymph
[8] = system: Pseudomonas syringae pv. tabaci NCPPB 1237; assay: Inhibition zone assay; set-up: key: --: "-" means that no inhibition has been found; conditions: * synthetic ApidIa and heattreated immune lymph instead of Bee6 and native immune lymph
[9] = system: Rhizobium meliloti ZB 314; assay: Inhibition zone assay; conditions: I and B 10 ul, L 5 ug
[10] = system: Xanthomonas campestris pv. campestris A 902; assay: Inhibition zone assay; set-up: key: --: "-" means that no inhibition has been found; conditions: * synthetic ApidIa and heattreated immune lymph instead of Bee6 and native immune lymph
[11] = system: Xanthomonas campestris pv. oryzae IRN 235; set-up: key: --: "-" means that no inhibition has been found
[12] = system: Xanthomonas maltophilia JCM1977; assay: Inhibition zone assay; set-up: key: --: "-" means that no inhibition has been found; conditions: Xanthomonas maltophilia JCM1977 (Tables 2 and 3)
[13] = system: Bacillus thuringiensis DSM 3131; assay: Inhibition zone assay; set-up: key: --: "-" means that no inhibition has been found; conditions: I and B 10 ul, L 5 ug
[14] = system: Janthinobacterium lividum Sneath HB; assay: Inhibition zone assay; set-up: key: --: "-" means that no inhibition has been found; conditions: I and B 10 ul, L 5 ug
[15] = system: Pseudomonas paucimobilis ATCC 29837; assay: Inhibition zone assay; conditions: L 5 ug
[16] = system: Pseudomonas acidovorans CuETM 83-109; assay: Inhibition zone assay; set-up: key: --: "-" means that no inhibition has been found; conditions: I and B 10 ul, L 5 ug
Streptococci = assay: Growth-inhibition zone assay

With `CC[C@H](C)[C@H](NC(=O)[C@H](CCCCN)NC(=O)[C@@H]1CCCN1C(=O)[C@H](CC(N)=O)NC(=O)[C@H](Cc1ccccc1)NC(=O)[C@@H]1CCCN1C(=O)CNC(=O)[C@H](CCC(N)=O)NC(=O)CNC(=O)[C@@H]1CCCN1C(=O)[C@H](Cc1ccccc1)NC(=O)[C@@H](NC(=O)[C@@H]1CCCN1C(=O)[C@H](Cc1ccccc1)NC(=O)[C@@H]1CCCN1C(=O)[C@H](CCCNC(=N)N)NC(=O)[C@H](CCCNC(=N)N)NC(=O)CNC(=O)[C@@H]1CCCN1C(=O)[C@H](CCC(N)=O)NC(=O)[C@@H]1CCCN1C(=O)[C@@H](NC(=O)[C@H](CC(N)=O)NC(=O)[C@@H]1CCCN1C(=O)[C@H](CC(C)C)NC(=O)[C@@H]1CCCN1C(=O)[C@@H](NC(=O)[C@@H](N)Cc1ccc(O)cc1)C(C)C)C(C)C)[C@@H](C)O)C(=O)N[C@@H](CCCCN)C(=O)N[C@@H](Cc1c[nH]c2ccccc12)C(=O)N1CCC[C@H]1C(=O)N[C@@H](CCC(N)=O)C(=O)NCC(=O)N[C@@H](Cc1ccc(O)cc1)C(=O)O` [bee 9] (H-YVPLPNVPQPGRRPFPTFPGQGPFNPKIKWPQGY-OH) the “diameter of growth-inhibition zone” value [1] was “--”, the “diameter of growth-inhibition zone” value [2] was “--” and the “diameter of growth-inhibition zone” value [3] was “--”. For the same compound, the “diameter of growth-inhibition zone” value [4] was “--”, the “diameter of growth-inhibition zone” value [5] was “--” and the “diameter of growth-inhibition zone” value [6] was “--”. For the same compound, the “diameter of growth-inhibition zone” value [7] was “--”, the “diameter of growth-inhibition zone” value [8] was “--” and the “diameter of growth-inhibition zone” value [9] was 4 mm. The “diameter of growth-inhibition zone” value [10] was “--”, the “diameter of growth-inhibition zone” value [11] was “--” and the “diameter of growth-inhibition zone” value [12] was “--”. For the same compound, the “diameter of growth-inhibition zone” value [13] was “--”, the “diameter of growth-inhibition zone” value [14] was “--” and the “diameter of growth-inhibition zone” value [15] was 4 mm. The “diameter of growth-inhibition zone” value [16] was “--” and the “susceptibility, in words” value (Streptococci) was “resistant”.
